# Data as given in patent publication US9914732B2, “Diazabicyclo[4.3.1]decane derivatives for treatment of psychiatric disorders” (Max-Planck-Gesellschaft zur Forderung der Wissenschaften …, priority 2014, dated 2018).
# Assays:
# [1] = biological target: T1, FKBP51 (Homo sapiens, UniProt Q13451); experiment: Fluorescence polarization (FP) assay, binding to the FK506-binding domain of FKBP51; details: FK506-binding domain of FKBP51 (FKBP51FK1), competition with fluorescent ligand 2b
# T1 sequence (Q13451 42-130 limits assumed): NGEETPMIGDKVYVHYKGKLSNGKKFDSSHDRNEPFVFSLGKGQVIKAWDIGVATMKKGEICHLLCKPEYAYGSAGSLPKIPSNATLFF
# Protocol: (§1) In the present invention, in vitro fluorescence polarization assays with the compounds of the general formula (I) were performed to determine the binding affinities to FKBP51 and FKBP52 or to the isolated FK506-binding domains of FKBP51 and FKBP52 ([…]). Binding to the isolated FK506-binding domains is reliably indicative of binding to the full length proteins. The affinities for the isolated FK506-binding domains and for full-length FKBP51 or FKBP52 are the same for all compounds tested so far (Kozany et al, ChemBioChem 2009, 10, 1402-1410).
# (§2) Example 11: Fluorescence Polarization (FP) Assays
# (§3) In-vitro fluorescence polarization assays were performed to determine the binding affinities for FKBP51 and 52 according to a literature procedure (Kozany, C.; Marz, A.; Kress, C.; Hausch, F., Fluorescent probes to characterise FK506-binding proteins. Chembiochem 2009, 10, (8), 1402-10).
# (§4) For fluorescence polarization assays the fluorescent ligand 2b was dissolved in HEPES (20 mm, pH 8), Triton-X100 (0.01%), at double the concentration required for the final sample. The target protein was also diluted in this assay buffer at double the highest concentration required for the final sample. This protein stock was used for a 1:1 serial dilution.
# (§5) The fluorescent ligand 2b was diluted in assay buffer to a concentration double the final concentration (20 nM 2b). The inventive compound was dissolved in DMSO to reach a 100-times concentrated stock solution. This was used for a 1:1 serial dilution in DMSO. Every sample of this serial dilution was diluted by a factor of 50 in assay buffer supplemented with ligand 2b to achieve a 2× concentrated mixture of ligand 2b and the inventive compound. To this competitive ligand double the protein concentration for 2b assay: FKBP51FK1 560 nM (2×280 nM) or FKBP52FK1 800 nM (2×400 nM) diluted in assay buffer was added.
# (§6) The samples were transferred to black 384-well assay plates (No.: 3575; Corning Life Sciences). After incubation at room temperature for 30 min the fluorescence anisotropy was measured (GENios Pro, Tecan, Männedorf, Switzerland) by using an excitation filters of 485/20 nm and emission filters of 535/25 nm. The binding assays were performed in duplicates in the plate format.
# (§7) The competition curves were analyzed by using SigmaPlot9. Data were fitted to a four parameter logistic curve to deduce the IC50 values. For the analysis of K1 values, data were fitted to the following equation (Z. X. Wang, FEBS Lett. 1995, 360, 111-114). A=(Amax−Amin)/[L]t×(([L]t×((2×((Klig+Kcomp+[L]t+[I]t−[R]t)^2−3×(Kcomp×([L]t−[R]t)+Klig×([I]t−[R]t)+[…]))^0.5×COS(ARCCOS((−2×(Klig+Kcomp+[L]t+[I]t−[R]t)^3+9×(Klig+Kcomp+[L]t+[I]t−[R]t)×(Kcomp×([L]t−[R]t)+Klig×([I]t−[R]t)+Klig×Kcomp)−27×(−1×Klig×Kcomp×[R]t))/(2×((((Klig+Kcomp+[L]t+[I]t−[R]t)^2−3×(Kcomp×([L]t−[R]t)+Klig×([I]t−[R]t)+Klig×Kcomp))^3)^0.5)))/3))−(Klig+Kcomp+[L]t+[I]t−[R]t)))/((3×Klig)+((2×((Klig+Kcomp+[L]t+[I]t−[R]t)^2−3×(Kcomp×([L]t−[R]t)+Klig×([I]t−[R]t)+Klig×Kcomp))^0.5×COS(ARCCOS((−2×(Klig+Kcomp+[L]t+[I]t−[R]t)^3+9×(Klig+Kcomp+[L]t+[I]t−[R]t)×(Kcomp×([L]t−[R]t)+Klig×([I]t−[R]t)+Klig×Kcomp)−27×(−1×Klig×Kcomp×[R]t))/(2×((((Klig+Kcomp+[L]t+[I]t−[R]t)^2−3×(Kcomp×([L]t−[R]t)+Klig×([I]t−[R]t)+Klig×Kcomp))^3)^0.5)))/3))−(Klig+Kcomp+[L]t+[I]t−[R]t)))+Amin
# (§8) In this equation Klig and Kcomp stand for the Kd values of the used tracer or competing inhibitor, [I]t is referring to the total concentration of the titrated inhibitor.
# [2] = biological target: T2, FKBP52 (Homo sapiens, UniProt Q02790); experiment: Fluorescence polarization (FP) assay, binding to the FK506-binding domain of FKBP52; details: FK506-binding domain of FKBP52 (FKBP52FK1), competition with fluorescent ligand 2b
# T2 sequence (Q02790 50-138 limits assumed): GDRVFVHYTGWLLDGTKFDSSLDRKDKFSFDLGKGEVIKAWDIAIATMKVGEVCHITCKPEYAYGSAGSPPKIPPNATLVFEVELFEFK
# Protocol: as §1, §2, §3, §4, §5, §6, §7, §8
SMILES,Ki [1] [nM],Ki [2] [nM]
"O=C1NC[C@@H](O)[C@H]2CCC[C@@H]1N2S(=O)(=O)c1cc(Cl)cc(Cl)c1 [Compound H1.4, (1S,5R,6R)-10-((3,5-dichlorophenyl)sulfonyl)-5-hydroxy-3,10-diazabicyclo[4.3.1]decan-2-one]",1000 to 5000,1000 to 5000
"COCCN1C[C@H]([C@H](C)O)[C@H]2CCC[C@@H](C1=O)N2S(=O)(=O)c1cc(Cl)cc(Cl)c1 [Compound B7, (1S,5S,6R)-10-((3,5-dichlorophenyl)sulfonyl)-5-((S)-1-hydroxyethyl)-3-(2-methoxyethyl)-3,10-diazabicyclo[4.3.1]decan-2-one]",≤ 100,≤ 100
"COC[C@H]1CN(Cc2cnn[nH]2)C(=O)[C@@H]2CCC[C@H]1N2S(=O)(=O)c1ccc(NC(C)=O)c(Cl)c1 [Compound N23, N-(4-(((1S,5S,6R)-3-((1H-1,2,3-triazol-5-yl)methyl)-5-(methoxymethyl)-2-oxo-3,10-diazabicyclo[4.3.1]decan-10-yl)sulfonyl)-2-chlorophenyl)acetamide]",≤ 100,≤ 100
"C=CC1CNC(=O)C2CCCC1N2S(=O)(=O)c1cc(Cl)cc(Cl)c1 (stereo in doubt) [Compound I8, (1S,5R,6R)-10-((3,5-dichlorophenyl)sulfonyl)-5-vinyl-3,10-diazabicyclo[4.3.1]decan-2-one]",500 to 1000,500 to 1000
"C=CC1CN(Cc2ccccn2)C(=O)C2CCCC1N2S(=O)(=O)c1ccc2c(c1)CCO2 (stereo in doubt) [Compound K12, (1S,5R,6R)-10-((2,3-dihydrobenzofuran-5-yl)sulfonyl)-3-(pyridin-2-ylmethyl)-5-vinyl-3,10-diazabicyclo[4.3.1]decan-2-one]",500 to 1000,500 to 1000
"C=C[C@@H]1CN(Cc2ccccn2)C(=O)[C@@H]2CCC[C@H]1N2S(=O)(=O)c1cc(Cl)c(O)c(Cl)c1 [Compound K8, (1S,5R,6R)-10-((3,5-dichloro-4-hydroxyphenyl)sulfonyl)-3-(pyridin-2-ylmethyl)-5-vinyl-3,10-diazabicyclo[4.3.1]decan-2-one]",100 to 500,100 to 500
"C=CC1CN(Cc2ccccn2)C(=O)C2CCCC1N2S(=O)(=O)c1cc(Br)cc(C(=O)OC)c1 (stereo in doubt) [Compound K24, methyl 3-bromo-5-(((1S,5R,6R)-2-oxo-3-(pyridin-2-ylmethyl)-5-vinyl-3,10-diazabicyclo[4.3.1]decan-10-yl)sulfonyl)benzoate]",≤ 100,≤ 100
"C=CC1CN(Cc2ccccn2)C(=O)C2CCCC1N2S(=O)(=O)c1ccc2ncsc2c1 (stereo in doubt) [Compound K9, (1S,5R,6R)-10-(benzo[d]thiazol-6-ylsulfonyl)-3-(pyridin-2-ylmethyl)-5-vinyl-3,10-diazabicyclo[4.3.1]decan-2-one]",100 to 500,100 to 500
"C#CCN1C[C@H](COC)[C@H]2CCC[C@@H](C1=O)N2S(=O)(=O)c1ccc(-c2ccccc2)nc1 [Compound N14, (1S,5S,6R)-5-(methoxymethyl)-10-((6-phenylpyridin-3-yl)sulfonyl)-3-(prop-2-yn-1-yl)-3,10-diazabicyclo[4.3.1]decan-2-one]",100 to 500,100 to 500
"C=C[C@@H]1CN(Cc2ccccn2)C(=O)[C@@H]2CCC[C@H]1N2S(=O)(=O)c1cccc(C#N)c1 [Compound K7, 3-(((1S,5R,6R)-2-oxo-3-(pyridin-2-ylmethyl)-5-vinyl-3,10-diazabicyclo[4.3.1]decan-10-yl)sulfonyl)benzonitrile]",100 to 500,100 to 500
"CC[C@H]1CN(CCOC)C(=O)[C@@H]2CCC[C@H]1N2S(=O)(=O)c1cc(Cl)cc(Cl)c1 [Compound B15, (1S,5S,6R)-10-((3,5-dichlorophenyl)sulfonyl)-5-ethyl-3-(2-methoxyethyl)-3,10-diazabicyclo[4.3.1]decan-2-one]",≤ 100,≤ 100
"COCO[C@H]1CNC(=O)[C@@H]2CCC[C@H]1N2S(=O)(=O)c1cc(Cl)cc(Cl)c1 [Compound H2.2, (1S,5S,6R)-10-((3,5-dichlorophenyl)sulfonyl)-5-(methoxymethoxy)-3,10-diazabicyclo[4.3.1]decan-2-one]",500 to 1000,500 to 1000
"COc1ccc(OCCN2C[C@H](C(C)O)C3CCCC(C2=O)N3S(=O)(=O)c2cc(Cl)cc(Cl)c2)cc1OC (stereo in doubt) [Compound D7, (1S,5S,6R)-10-((3,5-dichlorophenyl)sulfonyl)-3-(2-(3,4-dimethoxyphenoxy)ethyl)-5-((R)-1-hydroxyethyl)-3,10-diazabicyclo[4.3.1]decan-2-one]",≤ 100,≤ 100
"COCCN1CC(CO)C2CCCC(C1=O)N2S(=O)(=O)c1cc(Cl)cc(Cl)c1 (stereo in doubt) [Compound B13, (1S,5R,6R)-10-((3,5-dichlorophenyl)sulfonyl)-5-(hydroxymethyl)-3-(2-methoxyethyl)-3,10-diazabicyclo[4.3.1]decan-2-one]",≤ 100,100 to 500
"COC[C@H]1CN(Cc2cnn[nH]2)C(=O)[C@@H]2CCC[C@H]1N2S(=O)(=O)c1cc(Br)cc(C(N)=O)c1 [Compound N20, 3-(((1S,5S,6R)-3-((1H-1,2,3-triazol-5-yl)methyl)-5-(methoxymethyl)-2-oxo-3,10-diazabicyclo[4.3.1]decan-10-yl)sulfonyl)-5-bromobenzamide]",≤ 100,≤ 100
"C=C[C@@H]1CN(Cc2ccccn2)C(=O)[C@@H]2CCC[C@H]1N2S(=O)(=O)c1cccc(C(=O)OC)c1 [Compound K23, methyl 3-(((1S,5R,6R)-2-oxo-3-(pyridin-2-ylmethyl)-5-vinyl-3,10-diazabicyclo[4.3.1]decan-10-yl)sulfonyl)benzoate]",500 to 1000,500 to 1000
"COC[C@H]1CN(Cc2cnnn2Cc2ccccc2)C(=O)[C@@H]2CCC[C@H]1N2S(=O)(=O)c1cccc(F)c1 [Compound N30, (1S,5S,6R)-3-((1-benzyl-1H-1,2,3-triazol-5-yl)methyl)-10-((3-fluorophenyl)sulfonyl)-5-(methoxymethyl)-3,10-diazabicyclo[4.3.1]decan-2-one]",100 to 500,100 to 500
"COc1ccc(OCCN2C[C@H](O)[C@H]3CCC[C@@H](C2=O)N3S(=O)(=O)c2cc(Cl)cc(Cl)c2)cc1OC [Compound H2.3, (1S,5S,6R)-10-((3,5-dichlorophenyl)sulfonyl)-3-(2-(3,4-dimethoxyphenoxy)ethyl)-5-hydroxy-3,10-diazabicyclo[4.3.1]decan-2-one]",≤ 100,100 to 500
"C=C[C@@H]1CN(CC(=O)OCC)C(=O)[C@@H]2CCC[C@H]1N2S(=O)(=O)c1cc(Cl)cc(Cl)c1 [Compound J9, ethyl 2-((1S,5R,6R)-10-((3,5-dichlorophenyl)sulfonyl)-2-oxo-5-vinyl-3,10-diazabicyclo[4.3.1]decan-3-yl)acetate]",100 to 500,100 to 500
